From US6376169B1, “Method for diagnosing a vascular condition” (Queens University at Kingston, priority 1998, dated 2002)
“Also recorded” adds a separate entry of the source.

What was measured:
MDA-MB-231 cells = experiment: In vitro invasion of MDA-MB-231 cells through Matrigel; assay type: cell-based, human; conditions: 1% O2 + 30% CO
Method: In vitro invasion assay. An assay which employs reconstituted basement membrane (Matrigel; Collaborative Biomedical Products, Bedford, Mass.) as the substrate for invasion was used to determine the effect of hypoxia on the invasiveness of tumor cells. Costar Transwell inserts (6.5 mm diameter polycarbonate membrane, 8 μm pore; Corning Costar Corp., Cambridge, Mass.) were coated with 100 μl of a 1 mg/ml solution of Matrigel diluted in cold serum-free culture medium, placed in the wells of a 24-well tissue culture plate and allowed to air-dry for 12 h in a laminar flow cabinet. After reconstituting the Matrigel by incubating for 1 h with 100 μl of serum-free medium, 5.0×10^4 cells in 100 μl aliquots of serum-containing medium were added to the Transwells. Following a 24-h incubation under either 20% or 1% O2 in the absence or presence of 10 μg/ml blocking anti-uPAR antibody (3936), or under 1% O2+30% CO (to assess the role of a heme protein on invasion), cells on the surface of the Matrigel-coated polycarbonate membrane (non-invading cells) were removed by scraping with a cotton swab. […] The invasion index' was then determined by counting, under a microscope, the total number of stained cells in the underside of the polycarbonate membranes.

cell-associated uPA = experiment: Zymography of cell-associated plasminogen activators in MDA-MB-231 cell extracts; assay type: cell-based, human
Method: To assess the levels of plasminogen activators associated with cells cultured for 24 h under 20% and 1% O2, extracts were prepared by disrupting trypsinized cell pellets with 2% SDS in Tris-buffered saline (TBS; 10 mM Tris, 0.15 M NaCl, pH 7.5) using a Polytron homogenizer (Brinkmann Instruments, Rexdale, ON, Canada). The homogenates were centrifuged at 15,000 g for 15 min to remove insoluble materials and 100 μg of extracted protein were analyzed by casein-plasminogen gel zymography as described above.

uPAR = uPAR protein and mRNA in cancer cells (Example 1); assay type: cell-based; conditions: 24 hours, standard conditions; 100 μM cobalt chloride; Tiron

| Structure (SMILES) | effect on hypoxia-mediated increase in invasiveness (MDA-MB-231 cells) | effect on hypoxic increase in cell-associated uPA (cell-associated uPA; 1% O2 + 30% CO, listed as CO) | cell-associated uPA levels (cell-associated uPA; culture with cobalt chloride) | uPAR protein and mRNA levels (uPAR) |
| --- | --- | --- | --- | --- |
| [C-]#[O+] [carbon monoxide] | completely abrogated | abrogated the hypoxic increase in cell-associated uPA; also recorded: prevented the effect of hypoxia on cell-associated uPA increases | – | – |
| [Cl][Co][Cl] [cobalt chloride] | – | – | increased cell-associated uPA | elevated uPAR protein and mRNA levels |
